#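 Protocol summary: plate cells (96-well), add compound at 5 concentrations, incubate 48 h, interpolate endpoints linearly. Here, GI50 denotes the concentration required for 50% inhibition of growth.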 The source made the active and inactive calls. Cut-off read from the data, not from the text of the source: active = GI50 up to about 1.1 µM and inactive = higher.
# Key:
# Test in all cases: NCI anticancer screen, dose series, 48 h
# EKVX = test system: EKVX
# T47D = test system: T47D
# OVCAR-4 = test system: OVCAR-4
# UO-31 = test system: UO-31
# DU-145 = test system: DU-145
# SK-MEL-28 = test system: SK-MEL-28
# HCT-116 = test system: HCT-116
# PC-3 = test system: PC-3
# HT-29 = test system: HT-29
# OVCAR-8 = test system: OVCAR-8
# CAKI-1 = test system: CAKI-1
# SR = test system: SR
# OVCAR-5 = test system: OVCAR-5
# SW-620 = test system: SW-620
# SK-OV-3 = test system: SK-OV-3
# CCRF-CEM = test system: CCRF-CEM
# OVCAR-3 = test system: OVCAR-3
# SF-295 = test system: SF-295
# SK-MEL-2 = test system: SK-MEL-2
# SF-539 = test system: SF-539
Structure (SMILES),GI50 (EKVX),GI50 (T47D),GI50 (OVCAR-4),GI50 (UO-31),GI50 (DU-145),GI50 (SK-MEL-28),GI50 (HCT-116),GI50 (PC-3),GI50 (HT-29),GI50 (OVCAR-8),GI50 (CAKI-1),GI50 (SR),GI50 (OVCAR-5),GI50 (SW-620),GI50 (SK-OV-3),GI50 (CCRF-CEM),GI50 (OVCAR-3),GI50 (SF-295),GI50 (SK-MEL-2),GI50 (SF-539)
CCOC(=O)C1=C(C)C2C=C(c3cccs3)CC(c3ccc(Cl)cc3)=C2OC1=O (configuration not stated),31 µM (inactive),3.97 µM (inactive),19.7 µM (inactive),13.3 µM (inactive),29.9 µM (inactive),94.4 µM (inactive),7.43 µM (inactive),14.1 µM (inactive),30 µM (inactive),31.8 µM (inactive),57.8 µM (inactive),15.5 µM (inactive),> 100 µM (inactive),65 µM (inactive),> 100 µM (inactive),17.3 µM (inactive),24.7 µM (inactive),60.4 µM (inactive),> 100 µM (inactive),
Cc1ccc(C)n1-n1c(Cc2ccc(Cl)cc2)n[nH]c1=O,69.5 µM (inactive),39.9 µM (inactive),> 100 µM (inactive),58.7 µM (inactive),> 100 µM (inactive),> 100 µM (inactive),53.3 µM (inactive),39.2 µM (inactive),73.8 µM (inactive),77.4 µM (inactive),90.6 µM (inactive),33.2 µM (inactive),> 100 µM (inactive),> 100 µM (inactive),> 100 µM (inactive),36.6 µM (inactive),54.5 µM (inactive),66.2 µM (inactive),31 µM (inactive),
CN1C(=O)C(CCO)(C(C)(C)C)c2ccccc21 (configuration not stated),> 100 µM (inactive),> 100 µM (inactive),> 100 µM (inactive),> 100 µM (inactive),> 100 µM (inactive),> 100 µM (inactive),> 100 µM (inactive),> 100 µM (inactive),,> 100 µM (inactive),> 100 µM (inactive),> 100 µM (inactive),> 100 µM (inactive),> 100 µM (inactive),> 100 µM (inactive),> 100 µM (inactive),> 100 µM (inactive),> 100 µM (inactive),> 100 µM (inactive),
COc1ccc(/N=N/C(=O)NC(Cc2ccccc2)C(=O)O)cc1 (configuration not stated),> 100 µM (inactive),> 100 µM (inactive),> 100 µM (inactive),> 100 µM (inactive),> 100 µM (inactive),> 100 µM (inactive),> 100 µM (inactive),95.7 µM (inactive),> 100 µM (inactive),> 100 µM (inactive),> 100 µM (inactive),> 100 µM (inactive),> 100 µM (inactive),> 100 µM (inactive),,> 100 µM (inactive),> 100 µM (inactive),> 100 µM (inactive),> 100 µM (inactive),> 100 µM (inactive)
CNc1ccc(Cl)cc1S(=O)(=O)c1ccccc1[N+](=O)[O-],> 100 µM (inactive),> 100 µM (inactive),99.3 µM (inactive),> 100 µM (inactive),> 100 µM (inactive),> 100 µM (inactive),> 10 µM (inactive),> 100 µM (inactive),> 100 µM (inactive),> 100 µM (inactive),,> 100 µM (inactive),> 100 µM (inactive),> 100 µM (inactive),> 100 µM (inactive),> 100 µM (inactive),> 100 µM (inactive),> 100 µM (inactive),> 100 µM (inactive),> 100 µM (inactive)
O=C(COc1ccc(OCC(=O)N/N=C/c2ccc(-c3ccc(Cl)cc3Cl)o2)c(Cl)c1)N/N=C/c1ccc(-c2ccc(Cl)cc2Cl)o1,0.142 µM (active),> 100 µM (inactive),> 100 µM (inactive),> 100 µM (inactive),> 100 µM (inactive),> 100 µM (inactive),> 100 µM (inactive),33.7 µM (inactive),> 100 µM (inactive),55.3 µM (inactive),> 100 µM (inactive),0.342 µM (active),> 100 µM (inactive),> 100 µM (inactive),,14.8 µM (inactive),49.5 µM (inactive),32.2 µM (inactive),17.1 µM (inactive),

# Source: ChEMBL document CHEMBL1201862, “PubChem BioAssay data set” (2004)
